Assay results published in patent publication US20200216441A1, “PESTICIDALLY ACTIVE HETEROCYCLIC DERIVATIVES WITH SULFUR CONTAINING SUBSTITUENTS” (SYNGENTA PARTICIPATIONS AG, priority 2017, published 2020).

Experiments:
[1] = test system: Diabrotica Balteata (Corn Root Worm); test: Diabrotica balteata (Corn Root Worm); conditions: in Zea mays, 96 h, read-out: effect in at least one of the two categories (mortality or growth inhibition)
[2] = test system: Plutella xylostella (Diamond Back Moth); test: whole plant or invertebrate; assay type: in vivo; conditions: 120 h, application rate of 200 ppm, L2 larvae on treated artificial diet, 5 days after infestation, read-out: effect in at least one of the two categories (mortality or growth inhibition)
[3] = test system: Myzus persicae (Green Peach Aphid); test: whole plant or invertebrate; assay type: in vivo; conditions: 144 h, test rate of 24 ppm, systemic, roots of infested pea seedlings in test solution, 6 days
[4] = test system: Myzus persicae (Green Peach Aphid); test: whole plant or invertebrate; conditions: foliar, 144 h
[5] = test system: Euschistus heros (Neotropical Brown Stink Bug); test: whole plant or invertebrate; assay type: in vivo; conditions: 120 h, application rate of 200 ppm, N2 nymphs on sprayed soybean leaves, 5 days after infestation, read-out: effect in at least one of the two categories (mortality or growth inhibition)
[6] = test system: Bemisia tabaci (Cotton White Fly); conditions: in Gossypium hirsutum, foliar, 144 h
[7] = test system: Spodoptera littoralis (Egyptian Cotton Leaf Worm); test: whole plant or invertebrate; conditions: in Gossypium barbadense, foliar, 72 h, read-out: control (mortality, anti-feeding effect, growth inhibition)

CCS(=O)(=O)c1cc(OC(C)(C)CSC)cnc1-c1nc2cc(C(F)(F)F)ncc2n1C [Compound P50, 2-[5-(1,1-dimethyl-2-methylsulfanyl-ethoxy)-3-ethylsulfonyl-2-pyridyl]-3-methyl-6-(trifluoromethyl)imidazo[4,5-c]pyridine]
≥ 80%: mortality at 200 ppm [1] | percent effect (mortality or growth inhibition) at 200 ppm [2] | mortality at 24 ppm [3] | mortality at 200 ppm [4] | percent effect (mortality or growth inhibition) at 200 ppm [5] | mortality at 200 ppm [6]

CCS(=O)(=O)c1cc(OCCCS(C)(=O)=O)cnc1-c1nc2cc(C(F)(F)F)ncc2n1C [Compound P52, 2-[3-ethylsulfonyl-5-(3-methylsulfonylpropoxy)-2-pyridyl]-3-methyl-6-(trifluoromethyl)imidazo[4,5-c]pyridine]
≥ 80%: mortality at 24 ppm [3] | mortality at 200 ppm [4] | percent effect (mortality or growth inhibition) at 200 ppm [5] | mortality at 200 ppm [6]

CCS(=O)(=O)c1cc(OC(C)C)cnc1-c1nc2cc(SC(F)F)ncc2n1C [Compound P86, 6-(difluoromethylsulfanyl)-2-(3-ethylsulfonyl-5-isopropoxy-2-pyridyl)-3-methyl-imidazo[4,5-c]pyridine]
≥ 80%: mortality at 200 ppm [1] | percent effect (mortality or growth inhibition) at 200 ppm [2] | mortality at 24 ppm [3] | mortality at 200 ppm [4] | percent effect (mortality or growth inhibition) at 200 ppm [5] | mortality at 200 ppm [7]

CCS(=O)(=O)c1cc(OCS(C)(=O)=O)cnc1-c1nc2cc(C(F)(F)F)ncc2n1C [Compound P9, 2-[3-ethylsulfonyl-5-(methylsulfonylmethoxy)-2-pyridyl]-3-methyl-6-(trifluoromethyl)imidazo[4,5-c]pyridine]
≥ 80%: mortality at 200 ppm [1] | mortality at 24 ppm [3] | mortality at 200 ppm [4] | percent effect (mortality or growth inhibition) at 200 ppm [5] | mortality at 200 ppm [6]

CCS(=O)(=O)c1cc(OC(C)(C)C(N)=O)cnc1-c1nc2cc(C(F)(F)F)ncc2n1C [Compound P89, 2-[[5-ethylsulfonyl-6-[3-methyl-6-(trifluoromethyl)imidazo[4,5-c]pyridin-2-yl]-3-pyridyl]oxy]-2-methyl-propanamide]
≥ 80%: mortality at 200 ppm [1] | percent effect (mortality or growth inhibition) at 200 ppm [2] | mortality at 24 ppm [3] | mortality at 200 ppm [4] | percent effect (mortality or growth inhibition) at 200 ppm [5] | mortality at 200 ppm [6]

CCS(=O)(=O)c1cc(O[C@H]2C[C@@H](C#N)C2)cnc1-c1nc2cc(C(F)(F)F)ncc2n1C [Compound P46, 3-[[5-ethylsulfonyl-6-[3-methyl-6-(trifluoromethyl)imidazo[4,5-c]pyridin-2-yl]-3-pyridyl]oxy]cyclobutanecarbonitrile]
≥ 80%: mortality at 200 ppm [1] | percent effect (mortality or growth inhibition) at 200 ppm [2] | mortality at 24 ppm [3] | mortality at 200 ppm [4] | percent effect (mortality or growth inhibition) at 200 ppm [5] | mortality at 200 ppm [6]

CCS(=O)(=O)c1cc(OCCF)cnc1-c1nc2cc(C(F)(F)F)ncc2n1C [Compound P31, 2-[3-ethylsulfonyl-5-(2-fluoroethoxy)-2-pyridyl]-3-methyl-6-(trifluoromethyl)imidazo[4,5-c]pyridine]
≥ 80%: mortality at 200 ppm [1] | percent effect (mortality or growth inhibition) at 200 ppm [2] | mortality at 24 ppm [3] | mortality at 200 ppm [4] | percent effect (mortality or growth inhibition) at 200 ppm [5] | mortality at 200 ppm [7]

CCS(=O)(=O)c1cc(OCS(C)(=O)=O)ccc1-c1nc2cc(C(F)(F)F)ncc2n1C [Compound P105, 2-[2-ethylsulfonyl-4-(methylsulfonylmethoxy)phenyl]-3-methyl-6-(trifluoromethyl)imidazo[4,5-c]pyridine]
≥ 80%: mortality at 200 ppm [1] | mortality at 24 ppm [3] | mortality at 200 ppm [4] | percent effect (mortality or growth inhibition) at 200 ppm [5] | mortality at 200 ppm [6]

CCS(=O)(=O)c1cc(OC[Si](C)(C)C)cnc1-c1nc2cc(C(F)(F)F)ncc2n1C [Compound P61, [5-ethylsulfonyl-6-[3-methyl-6-(trifluoromethyl)imidazo[4,5-c]pyridin-2-yl]-3-pyridyl]oxymethyl-trimethyl-silane]
≥ 80%: mortality at 200 ppm [1] | mortality at 200 ppm [4] | mortality at 200 ppm [6] | mortality at 200 ppm [7]

CCSc1cc(OC(C)(C)C)cnc1-c1nc2cc(C(F)(F)F)ncc2n1C [Compound P3, 2-(5-tert-butoxy-3-ethylsulfanyl-2-pyridyl)-3-methyl-6-(trifluoromethyl)imidazo[4,5-c]pyridine]
≥ 80%: mortality at 200 ppm [1] | percent effect (mortality or growth inhibition) at 200 ppm [2] | mortality at 200 ppm [4] | percent effect (mortality or growth inhibition) at 200 ppm [5] | mortality at 200 ppm [6]

CCS(=O)(=O)c1cc(OCC(C)(C)C)cnc1-c1nc2cc(C(F)(F)F)ncc2n1C [Compound P26, 2-[5-(2,2-dimethylpropoxy)-3-ethylsulfonyl-2-pyridyl]-3-methyl-6-(trifluoromethyl)imidazo[4,5-c]pyridine]
≥ 80%: mortality at 200 ppm [1] | percent effect (mortality or growth inhibition) at 200 ppm [2] | mortality at 200 ppm [4] | mortality at 200 ppm [6] | mortality at 200 ppm [7]

CCS(=O)(=O)c1cc(OCOC)cnc1-c1nc2cc(C(F)(F)F)ncc2n1C [Compound P68, 2-[3-ethylsulfonyl-5-(methoxymethoxy)-2-pyridyl]-3-methyl-6-(trifluoromethyl)imidazo[4,5-c]pyridine]
≥ 80%: mortality at 200 ppm [1] | percent effect (mortality or growth inhibition) at 200 ppm [2] | mortality at 24 ppm [3] | mortality at 200 ppm [4] | percent effect (mortality or growth inhibition) at 200 ppm [5] | mortality at 200 ppm [7]

CCS(=O)(=O)c1cc(OCCCSC)cnc1-c1nc2cc(C(F)(F)F)ncc2n1C [Compound P56, 2-[3-ethylsulfonyl-5-(3-methylsulfanylpropoxy)-2-pyridyl]-3-methyl-6-(trifluoromethyl)imidazo[4,5-c]pyridine]
≥ 80%: mortality at 200 ppm [1] | mortality at 24 ppm [3] | mortality at 200 ppm [4] | percent effect (mortality or growth inhibition) at 200 ppm [5] | mortality at 200 ppm [6]

CCS(=O)(=O)c1cc(OC(C)C#N)cnc1-c1nc2cc(C(F)(F)F)ncc2n1C (stereo not shown) [Compound P22, 2-[[5-ethylsulfonyl-6-[3-methyl-6-(trifluoromethyl)imidazo[4,5-c]pyridin-2-yl]-3-pyridyl]oxy]propanenitrile]
≥ 80%: mortality at 200 ppm [1] | percent effect (mortality or growth inhibition) at 200 ppm [2] | mortality at 24 ppm [3] | mortality at 200 ppm [4] | percent effect (mortality or growth inhibition) at 200 ppm [5] | mortality at 200 ppm [7]

CCC(C#N)(CC)Oc1cnc(-c2nc3cc(C(F)(F)F)ncc3n2C)c(S(=O)(=O)CC)c1 [Compound P44, 2-ethyl-2-[[5-ethylsulfonyl-6-[3-methyl-6-(trifluoromethyl)imidazo[4,5-c]pyridin-2-yl]-3-pyridyl]oxy]butanenitrile]
≥ 80%: percent effect (mortality or growth inhibition) at 200 ppm [5] | mortality at 200 ppm [6]

CCS(=O)(=O)c1cc(OCC(F)F)ccc1-c1nc2cc(C(F)(F)F)ncc2n1C [Compound P107, 2-[4-(2,2-difluoroethoxy)-2-ethylsulfonyl-phenyl]-3-methyl-6-(trifluoromethyl)imidazo[4,5-c]pyridine]
≥ 80%: mortality at 200 ppm [1] | percent effect (mortality or growth inhibition) at 200 ppm [2] | mortality at 24 ppm [3] | mortality at 200 ppm [4] | percent effect (mortality or growth inhibition) at 200 ppm [5] | mortality at 200 ppm [7]

CCS(=O)(=O)c1cc(OCSC)ccc1-c1nc2cc(C(F)(F)F)ncc2n1C [Compound P106, 2-[2-ethylsulfonyl-4-(methylsulfanylmethoxy)phenyl]-3-methyl-6-(trifluoromethyl)imidazo[4,5-c]pyridine]
≥ 80%: mortality at 200 ppm [1] | mortality at 24 ppm [3] | mortality at 200 ppm [4] | percent effect (mortality or growth inhibition) at 200 ppm [5] | mortality at 200 ppm [6]
